Ten compounds from patent US12653901B2, “Anti-EDB antibodies and antibody-drug conjugates” (Pfizer Inc., priority 2016, dated 2026) can be followed below.

“Also recorded” adds a separate entry of the source. Read-outs that look alike come from different tables or passages of the source. Where a SMILES comes first, the peptide text is derived from it. [ ]: non-standard residue; d: D form. The star is where a group is joined. Dolaproine = CO[C@@H]([C@@H]1CCCN1)[C@@H](C)C(=O)O; Dil = CC[C@H](C)[C@H](NC)[C@@H](CC(=O)O)OC; Doe = c1ccc(C[C@H](N*)c2nccs2)cc1; Aib = CC(C)(N)C(=O)O Where only a bound is given, the exact number is not on record here.

The subject of one test is WI38-VA13 cells. The test is described as follows: In vitro cytotoxicity, WI38-VA13. The format is cell-based, human. Particulars: for IC50: Homo sapiens. As to the method: (§1) Proliferating WI38-VA13 or HT29 cells were harvested from culture flasks with non-enzymatic cell dissociation buffer and cultured overnight in 96-well plates (Corning) at 1000 cells/well in a humidified chamber (37° C., 5% CO2). The next day, cells were treated with EDB ADCs or isotype control non-EDB-binding ADCs by adding 50 μl of 3× stocks in duplicate at 10 concentrations. In some experiments, cells were plated at 1500 cells/well and treated the same day. Cells were then incubated with EDB ADCs or isotype control non-EDB-binding ADCs for four days. On harvest day, 50 μl of Cell Titer Glo (Promega) was added to the cells and incubated 0.5 hours at room temperature. Luminescence was measured on a Victor plate reader (Perkin Elmer, Waltham, MA). Relative cell viability was determined as a percentage of untreated control wells. IC50 values were calculated using four-parameter logistic model #203 with XLfit v4.2 (IDBS).

A further test concerns HT29 cells. Briefly: In vitro cytotoxicity, HT29. The format is cell-based, human. Particulars: for Avg IC50: HT29 (EDB+ FN negative), four days, ng/ml of antibody; for IC50: Homo sapiens. The protocol:
as §1

Another test relates to H-1975. The test is described as follows: In vivo efficacy, H-1975 NSCLC CLX. Particulars: intravenous, once every 4 days, doses as in value. Also noted: species or system mouse. The source says: (§2) To generate CLX models, 8×10^6 to 10×10^6 cells of H-1975, HT29, or Ramos tumor lines were implanted into female athymic nude mice subcutaneously. Ramos and H-1975 cells for inoculation were suspended in 50% and 100% […]® (BD Biosciences, biological call culture substrate), respectively. For the Ramos model, the animals received whole body irradiation (4 Gy) before cell inoculation to facilitate the establishment of tumors. When the average tumor volume reached approximately 160 to 320 mm^3, the animals were randomized into treatment groups, with 8-10 mice in each group. ADCs or vehicle (PBS) were administered intravenously on day 0 and then the animals were dosed once every 4 days for 4 to 8 doses. Tumors were measured once or twice weekly and tumor volume was calculated as volume (mm^3)[…](width×width×length)/2.

In a further test the test system is HT29. Briefly: In vivo efficacy, HT29 colon CLX. The arrangement: species or system mouse. To be noted: 3 mg/kg.
Excerpt: as §2

The test system of another test is Ramos. Briefly: In vivo efficacy, Ramos lymphoma CLX. The arrangement: species or system mouse. Particulars: 1 and 3 mg/kg.
Excerpt: as §2

Another test concerns PDX-PAX-13565. Briefly: In vivo efficacy, PDX-PAX-13565 pancreatic PDX. The arrangement: species or system mouse. Particulars: 0.3, 1 and 3 mg/kg. The source says: (§3) To generate PDX models, tumors were collected from donor animals and tumor fragments approximately 3×3 mm were implanted subcutaneously into the flank of female athymic nude mice (for PDX-NSX-11122 model) or NOD SCID mice (for PDX-PAX-13565 and PDX-PAX-12534 models) by using a 10 gage trocar. When average tumor volume reached approximately 160 to 260 mm^3 the mice were randomized into treatment groups, with 7-10 mice in each group. ADCs or vehicle (PBS) dosing regime and administration route as well as tumor measurement procedures are the same as described above for CLX models. […] Tumor growth inhibition is plotted as an average of tumor size±SEM.

In the next test the test system is EMT6 syngeneic tumors. Briefly: Immune response in treated EMT6 syngeneic tumors. The format is in vivo, mouse.
In the next test the test system is PDX-NSX-11122. The test is described as follows: In vivo efficacy, PDX-NSX-11122 NSCLC PDX. The arrangement: species or system mouse.
Excerpt: as §3

The next test deals with PDX-PAX-12534. Briefly: In vivo efficacy, PDX-PAX-12534 pancreatic PDX. Also noted: species or system mouse. To be noted: 0.3, 1 and 3 mg/kg.
Excerpt: as §3

For test [1], the target named is recombinant cynomolgus monkey 7-EDB-89. The test is described as follows: SPR binding kinetics to cynomolgus monkey 7-EDB-89. The protocol:
Binding is detected by surface SPR of laser light refracting from the surface. Analysis of the signal kinetics on-rate (ka) and off-rate (kd), allows the discrimination between non-specific and specific interactions.
The running and sample buffer used was HBS-EP+ buffer (0.01M HEPES, 0.15M NaCl, 3 mM EDTA, and 0.05% v/v surfactant P20 pH7.4). […] All SPR assays were performed at 25° C. with a data collection rate of 1 Hz using a BIACORE® (Cytiva; surface plasmon resonance (SPR) system) T200 instrument (GE Healthcare). The resulting sensorgrams were double referenced (Myszka, D. G., J. Mol. Recognit., 12:279-284, 1999) using both a control surface and buffer injections. The rate constants were determined by fitting the data to a 1:1 Langmuir model with BIACORE® (Cytiva; surface plasmon resonance (SPR) system) T200 evaluation software v2.0 and the equation KD=kd/ka. Each experiment was run in duplicate and the average KD was determined.

Setting [2] is: WI-38 VA13, unconjugated payload, WI38-VA13, read-out: Avg IC50.
Where [3] appears, read: HT-29, unconjugated payload, HT29, read-out: Avg IC50.

Sequence of recombinant cynomolgus monkey 7-EDB-89 (as listed by the source): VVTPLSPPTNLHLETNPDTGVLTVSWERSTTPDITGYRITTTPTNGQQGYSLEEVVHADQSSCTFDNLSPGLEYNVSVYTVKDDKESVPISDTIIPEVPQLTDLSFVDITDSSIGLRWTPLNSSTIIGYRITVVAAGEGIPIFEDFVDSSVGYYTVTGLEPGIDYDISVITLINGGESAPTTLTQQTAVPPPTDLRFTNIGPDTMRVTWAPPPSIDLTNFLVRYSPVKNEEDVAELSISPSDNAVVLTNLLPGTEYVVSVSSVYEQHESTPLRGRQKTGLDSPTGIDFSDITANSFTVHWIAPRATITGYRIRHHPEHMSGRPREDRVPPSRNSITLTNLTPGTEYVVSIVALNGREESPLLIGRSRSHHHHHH

With “ADC5: EDB-L19 antibody conjugated to DM1 with disulfide (diS) linker”, the “Avg IC50” value in the test with WI38-VA13 cells (WI38-VA13 (EDB+ FN positive), four days, ng/ml of antibody) worked out at 0.268 µg/mL; in the test with HT29 cells, 237 ng/mL.

`COc1cc2cc(c1Cl)N(C)C(=O)C[C@H](OC(=O)[C@H](C)N(C)C(=O)CCS)[C@]1(C)O[C@H]1[C@H](C)[C@@H]1C[C@@](O)(NC(=O)O1)[C@H](OC)/C=C/C=C(\C)C2` [Payload-DM1, mertansine, reference compound]: the IC50 with WI38-VA13 cells (WI-38 VA13, read-out: Avg IC50) was 3.06 nM; in the test with HT29 cells (HT-29, read-out: Avg IC50), 2.63 nM.

Consider `CC[C@H](C)[C@@H]([C@@H](CC(=O)N1CCC[C@H]1[C@H](OC)[C@@H](C)C(=O)N[C@@H](Cc1ccccc1)c1nccs1)OC)N(C)C(=O)[C@@H](NC(=O)C(C)(C)N)C(C)C` [Payload-0101] (H-[Aib]V[Dil][Dolaproine]-Doe), for which the IC50 in the test on WI38-VA13 cells (WI-38 VA13, read-out: Avg IC50) was 0.392 nM; in the test on HT29 cells (HT-29, read-out: Avg IC50) it was 0.09 nM.

Consider `CC[C@H](C)[C@@H]([C@@H](CC(=O)N1CCC[C@H]1[C@H](OC)[C@@H](C)C(=O)N[C@@H](Cc1ccc(N)cc1)c1nccs1)OC)N(C)C(=O)[C@@H](NC(=O)[C@]1(C)CCCN1C)C(C)C` [Payload-9411], for which the IC50 came to 0.519 nM in the test with WI38-VA13 cells (setting [2]) and 0.197 nM with HT29 cells (setting [3]).

In the case of “ADC1: EDB-L19 antibody conventionally conjugated via cysteine residues to auristatin 0101 with vc linker”, the anti-tumor activity entry in the test on H-1975 (listed as EDB-L19-vc-0101) was “tumor regression in a dose dependent manner at 3 mg/kg, and at as low as 1.5 mg/kg; also recorded: tumor regression at the highest doses evaluated”; in the test on HT29, “tumor regression at the 3 mg/kg dose over time”; in the test with Ramos it was “tumor regression at the 3 mg/kg dose in a dose dependent manner”; in the test with PDX-NSX-11122 (1 mg/kg), “delayed tumor growth”; with PDX-NSX-11122 (3 mg/kg), “complete regressions”; with PDX-NSX-11122 (intravenous, once every 4 days, doses as in value, listed as EDB-L19-vc-0101), “tumor regression in a dose dependent manner at 3 mg/kg and 1.5 mg/kg; also recorded: greater efficacy as compared to isotype negative control ADCs and ADCs that were generated using a disulfide linker”. Further, the anti-tumor efficacy entry in the test on PDX-PAX-13565 and in the test with PDX-PAX-12534 was “tumor regression in a dose dependent manner” in each case. Also, in the test with EMT6 syngeneic tumors (treated tumors), the “expression of PDL1” value is given as “increased expression of PDL1”. Besides, in the test with EMT6 syngeneic tumors (treated tumors vs. vehicle controls), the “infiltration of CD3+ T cells” value is listed as “Increased infiltration of CD3+ T cells”. Also, in the test on HT29 cells, the “Avg IC50” value is 15,346 ng/ml.

`CC[C@H](C)[C@@H]([C@@H](CC(=O)N1CCC[C@H]1[C@H](OC)[C@@H](C)C(=O)N[C@@H](Cc1ccc(CS)cc1)c1nccs1)OC)N(C)C(=O)[C@@H](NC(=O)C(C)(C)N(C)C)C(C)C` [Payload-4574]: the IC50 with WI38-VA13 cells (WI-38 VA13, read-out: Avg IC50) came to 3.54 nM; in the test with HT29 cells (HT-29, read-out: Avg IC50), 3.65 nM.

In the case of `Cc1c[nH]c2c1[C@@]13C[C@@H]1CN(C(=O)C14CC5(C(=O)N6C[C@H]7C[C@@]78C6=CC(=O)c6[nH]cc(C)c68)CC15C4)C3=CC2=O` (stereo partly drawn) [Payload-0326], the IC50 with WI38-VA13 cells (WI-38 VA13, read-out: Avg IC50) is under 0.001 nM; with HT29 cells (HT-29, read-out: Avg IC50) it was 0.049 nM.

With “Ab1: L19 human monoclonal IgG1 antibody binding EDB; HC SEQ ID NO: 8, LC SEQ ID NO: 15”, in test [1], the Kd is 188 nM, the ka is 560000 M⁻¹ s⁻¹ and the kd turned out to be 0.105 s⁻¹.

`CC[C@H](C)[C@@H]([C@@H](CC(=O)N1CCC[C@H]1[C@H](OC)[C@@H](C)C(=O)N[C@@H](Cc1ccc(N)cc1)c1nccs1)OC)N(C)C(=O)[C@@H](NC(=O)C(C)(C)N(C)C)C(C)C` [Payload-1569]: the IC50 with WI38-VA13 cells (setting [2]) was 0.269 nM; with HT29 cells (setting [3]), 0.074 nM.

As to “ADC10: EDB-L19 antibody conjugated to auristatin 1569 with vc linker”, in the test with H-1975, the anti-tumor activity result is “tumor regression in a dose dependent manner”. Further, the “Avg IC50” value in the test on HT29 cells was 5,702 ng/ml.
